Results as given in publication PMC10580383, “Development of Melanocortin 4 Receptor Agonists by Exploiting Animal-Derived Macrocyclic, Disulfide-Rich Peptide Scaffolds” (ACS Pharmacology & Translational Science, 2023).
Like-named read-outs stand apart in the source and are kept apart here. Where a SMILES comes first, the peptide text is derived from it. Bridges are numbered along the chain shown (N, C = ends). Where no end group is shown, it is not given here. [ ]: non-standard residue; d: D form. pGlu = O=C1CC[C@@H](C(=O)O)N1

What was measured:
[1] = molecular target: T1, mouse melanocortin 4 receptor (MC4R) (Mus musculus, UniProt P56450); assay: cAMP second messenger quantification assay (Cisbio HTRF cAMP Gs kit); format: cell-based
T1 construct: expressed in transfected cells; host or cells: HEK293 / HEK293T, transient transfection
T1 sequence (P56450 whole entry): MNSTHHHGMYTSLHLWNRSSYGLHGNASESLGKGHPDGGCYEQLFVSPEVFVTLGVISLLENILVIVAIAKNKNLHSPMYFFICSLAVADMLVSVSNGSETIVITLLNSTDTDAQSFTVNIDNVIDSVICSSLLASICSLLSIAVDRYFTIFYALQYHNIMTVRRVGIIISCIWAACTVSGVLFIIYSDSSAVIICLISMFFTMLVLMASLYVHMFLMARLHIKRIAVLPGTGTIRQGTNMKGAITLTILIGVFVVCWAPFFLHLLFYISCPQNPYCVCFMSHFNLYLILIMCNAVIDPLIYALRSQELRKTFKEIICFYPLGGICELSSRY
Method: Figure 3 Functional cAMP assay of synthesized peptide analogues targeting MC4R. The accumulation of adenylyl cyclase-catalyzed cAMP of (A) tachylplesin-1-like peptides (Ta1LPs, green), (B) protegrin-4-like peptides ([…], pink), (C) arenicin-3-like peptides (Ar3LPs, orange), and (D) gomesin-like peptides (GoLPs, blue) was measured in HEK293 cells transiently expressing mouse melanocortin 4 receptor (MC4R). […] Data are from three independent experiments and are shown as mean ± SEM.
Assays were performed on cells transiently expressing mouse MC4R-EGFP. BamHI and SacI restriction sites were used to clone mouse MC4R N-terminally into a pEGFP-N1 vector. Peptide ligands were assayed for […] in a 384-well format and triplicate according to the Cisbio protocol. Briefly, 5 μL containing 10,000 cells per well was incubated with 5 μL of peptide solutions prepared 2× in 1× stimulation buffer. Following an incubation of peptide ligands at 37 °C for 30 min, d2-labeled cAMP and cryptate-labeled antibody (5 μL of each) were added to the mixture and further incubated for at least 1 h at room temperature. Subsequently, cAMP levels were quantified on a Flexstation 3 (Molecular Devices, San Jose, USA) using homogeneous time-resolved fluorescence resonance energy transfer and the ratio 665/620 nm. Samples were measured in technical triplicates.
Data analysis was performed with GraphPad Prism (GraphPad Software, San Diego). The potency (EC50) and maximum efficacy (Emax) values of peptide ligands were derived from functional data fitted to three- or four-parameter nonlinear regression curves constrained to a bottom of zero.

mouse MC4R-EGFP = assay: kinetic BRET β-arrestin-2 recruitment assay (MC4R-EGFP / β-arrestin-2-nanoluciferase); format: cell-based; conditions: ligand 10 μM; HEK293 cells, MC4R-EGFP and β-arrestin-2-NLuc; mean ligand-induced BRET from 312 to 2433 s, NDP-α-MSH set as 100; three independent experiments
Method: Considering the physiological relevance of β-arrestins and their critical role in orchestrating MC4R signaling, we measured β-arrestin-2 recruitment in a kinetic bioluminescence resonance energy transfer (BRET) assay. We screened at a ligand concentration of 10 μM in HEK293 cells transiently expressing MC4R coupled to EGFP, and β-arrestin-2 fused to nanoluciferase. […] By contrast, Pr4LP1, Ar3LP1, Ar3LP2, and GoLP1 recruited β-arrestin-2 with greater efficiencies (>130%) than NDP-α-MSH (Figures 4 and S5B,C).
Figure 4 β-Arrestin-2 recruitment of designed MC4R peptide analogues. BRET assay was used to measure the transient interaction of MC4R-EGFP with β-arrestin-2-nanoluciferase (NLuc) in HEK293 cells over time following cell treatment with 10 μM of tachyplesin-1-like peptides (Ta1LPs, green), protegrin-4-like peptides (Pr4LPs, pink), arenicin-3-like peptides (Ar3LPs, orange), and gomesin-like peptides (GoLPs, blue). Relative BRET quantification was determined by calculating the mean value of ligand-induced BRET for each peptide ligand from 312 to 2433 s which was then divided by the mean value of ligand-induced BRET of NDP-α-MSH set as 100. Data are shown as mean ± SEM from three independent experiments.
BRET assay was performed as previously described.[32] Briefly, β-arrestin-2-nano luciferase and mouse MC4R-EGFP were cotransfected in a 1:10 ratio. 16 h post-transfection, 50,000 cells in 100 μL of phenol red-free DMEM with 10% FBS per well were transferred into white clear bottom 96-well plates and incubated overnight. On the day of the assay, cells were incubated for 1 h at 37 °C in phenol red- and serum-free DMEM. Furimazine (diluted 1:50) and peptide ligands (4×) were prepared in Hank’s balanced salt solution (HBSS), respectively. Prior to establishing the baseline and measuring kinetic BRET, furimazine was incubated for 5 min at 37 °C. The ability of peptide ligands to induce β-arrestin-2 recruitment was assessed by measuring light emissions for EGFP (510 nm) and nanoluciferase (460 nm) over 35 min using Flexstation 3 (Molecular Devices, San Jose, USA). The BRET ratio was calculated as emission EGFP (510 nm)/emission nanoluciferase (460 nm). The ligand-induced BRET was calculated by subtracting […].

[2] = molecular target: human melanocortin 4 receptor with LgBit fused at the C-terminus (human) (UniProt P32245)
human melanocortin 4 receptor with LgBit fused at the C-terminus (human), sequence (P32245 whole entry, the tested form may be a part): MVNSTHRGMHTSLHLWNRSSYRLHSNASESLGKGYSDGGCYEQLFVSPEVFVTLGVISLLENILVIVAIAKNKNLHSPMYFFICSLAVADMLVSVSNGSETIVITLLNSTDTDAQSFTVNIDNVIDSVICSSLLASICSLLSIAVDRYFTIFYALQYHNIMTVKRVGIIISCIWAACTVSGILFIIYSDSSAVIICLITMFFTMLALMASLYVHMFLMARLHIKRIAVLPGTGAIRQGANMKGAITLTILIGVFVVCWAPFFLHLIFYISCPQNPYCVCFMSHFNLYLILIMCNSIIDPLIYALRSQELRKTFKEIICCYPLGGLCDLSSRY

[3] = molecular target: mouse melanocortin 4 receptor fused to EGFP (mouse) (UniProt P56450)
mouse melanocortin 4 receptor fused to EGFP (mouse), sequence (P56450 whole entry, the tested form may be a part): as the sequence (P56450 whole entry) above

[4] = molecular target: mouse melanocortin 4 receptor fused to EGFP (mouse) (UniProt P56450); remark: listed apart in the source
[5] = HEK293, read-out: efficacy cAMP Emax ± SD

CC(C)[C@@H]1NC(=O)[C@H](Cc2c[nH]c3ccccc23)NC(=O)[C@H](Cc2c[nH]cn2)NC(=O)[C@@H](Cc2ccccc2)NC(=O)[C@H](Cc2c[nH]cn2)NC(=O)[C@@H]2CCCN2C(=O)[C@H](Cc2ccc(O)cc2)NC(=O)[C@H](C(C)C)NC(=O)[C@@H]2CSSC[C@H](NC1=O)C(=O)N[C@@H](Cc1ccc(O)cc1)C(=O)N[C@@H](CCCNC(=N)N)C(=O)N[C@@H](CCCNC(=N)N)C(=O)N[C@H](C(=O)N[C@@H](CC(N)=O)C(N)=O)CSSC[C@H](NC(=O)[C@H](Cc1ccccc1)NC(=O)CN)C(=O)N[C@@H](Cc1c[nH]c3ccccc13)C(=O)N[C@@H](Cc1ccc(O)cc1)C(=O)N[C@@H](C(C)C)C(=O)N2 [Ar3LP2] (H-GFCWYVCVYPH[dF]HWVCYRRCN-NH2; disulfide 3-20, 7-16)
EC50 [1]: 20 nM
Emax ([1]; HEK293; read-out: efficacy cAMP Emax ± SD): 95 ± 10%
BRET efficacy of β-arrestin-2 recruitment relative to NDP-α-MSH (mouse MC4R-EGFP): > 130%

CC(C)[C@@H]1NC(=O)[C@H](CCCNC(=N)N)NC(=O)[C@H](Cc2c[nH]c3ccccc23)NC(=O)[C@H](Cc2c[nH]cn2)NC(=O)[C@@H](Cc2ccccc2)NC(=O)[C@H](Cc2c[nH]cn2)NC(=O)[C@H](Cc2ccc(O)cc2)NC(=O)[C@H](C(C)C)NC(=O)[C@@H]2CSSC[C@H](NC1=O)C(=O)N[C@@H](Cc1ccc(O)cc1)C(=O)N[C@@H](CCCNC(=N)N)C(=O)N[C@@H](CCCNC(=N)N)C(=O)N[C@H](C(=O)N[C@@H](CC(N)=O)C(N)=O)CSSC[C@H](NC(=O)[C@H](Cc1ccccc1)NC(=O)CN)C(=O)N[C@@H](Cc1c[nH]c3ccccc13)C(=O)N[C@@H](Cc1ccc(O)cc1)C(=O)N[C@@H](C(C)C)C(=O)N2 [Ar3LP4] (H-GFCWYVCVYH[dF]HWRVCYRRCN-NH2; disulfide 3-20, 7-16)
EC50 [1]: 794 nM
Emax [1, 5]: 106 ± 14%
BRET efficacy of β-arrestin-2 recruitment relative to NDP-α-MSH (mouse MC4R-EGFP): less than 60%

CC(C)[C@@H]1NC(=O)[C@H](CCCNC(=N)N)NC(=O)[C@H](Cc2c[nH]c3ccccc23)NC(=O)[C@H](CCCNC(=N)N)NC(=O)[C@@H](Cc2ccccc2)NC(=O)[C@H](Cc2c[nH]cn2)NC(=O)[C@H](Cc2ccc(O)cc2)NC(=O)[C@H](C(C)C)NC(=O)[C@@H]2CSSC[C@H](NC1=O)C(=O)N[C@@H](Cc1ccc(O)cc1)C(=O)N[C@@H](CCCNC(=N)N)C(=O)N[C@@H](CCCNC(=N)N)C(=O)N[C@H](C(=O)N[C@@H](CC(N)=O)C(N)=O)CSSC[C@H](NC(=O)[C@H](Cc1ccccc1)NC(=O)CN)C(=O)N[C@@H](Cc1c[nH]c3ccccc13)C(=O)N[C@@H](Cc1ccc(O)cc1)C(=O)N[C@@H](C(C)C)C(=O)N2 [Ar3LP5] (H-GFCWYVCVYH[dF]RWRVCYRRCN-NH2; disulfide 3-20, 7-16)
EC50 [1]: 251 nM
Emax [1, 5]: 99 ± 8%
BRET efficacy of β-arrestin-2 recruitment relative to NDP-α-MSH (mouse MC4R-EGFP): less than 60%

CC(C)C[C@@H]1NC(=O)[C@H](CCCNC(=N)N)NC(=O)[C@H](CCCNC(=N)N)NC(=O)[C@@H](NC(=O)[C@@H]2CCC(=O)N2)CSSC[C@@H](C(=O)N[C@@H](CCCNC(=N)N)C(=O)NCC(=O)N[C@@H](CCCNC(=N)N)C(N)=O)NC(=O)[C@H](Cc2ccc(O)cc2)NC(=O)[C@H]([C@@H](C)O)NC(=O)[C@H](C(C)C)NC(=O)[C@@H]2CSSC[C@H](NC1=O)C(=O)N1CCC[C@H]1C(=O)N[C@@H](Cc1c[nH]cn1)C(=O)N[C@H](Cc1ccccc1)C(=O)N[C@@H](Cc1c[nH]cn1)C(=O)N[C@@H](Cc1c[nH]c3ccccc13)C(=O)N2 [GoLP1] ([pGlu]CRRLCPH[dF]HWCVTYCRGR-NH2; disulfide 2-16, 6-12)
EC50 [1]: 26 nM
Emax [1, 5]: 99 ± 3%
BRET efficacy of β-arrestin-2 recruitment relative to NDP-α-MSH (mouse MC4R-EGFP): > 130%

CC(C)C[C@@H]1NC(=O)[C@H](CCCNC(=N)N)NC(=O)[C@H](CCCNC(=N)N)NC(=O)[C@@H](NC(=O)[C@@H]2CCC(=O)N2)CSSC[C@@H](C(=O)N[C@@H](CCCNC(=N)N)C(=O)NCC(=O)N[C@@H](CCCNC(=N)N)C(N)=O)NC(=O)[C@H](Cc2ccc(O)cc2)NC(=O)[C@H]([C@@H](C)O)NC(=O)[C@H](C(C)C)NC(=O)[C@@H]2CSSC[C@H](NC1=O)C(=O)N[C@@H](Cc1c[nH]cn1)C(=O)N[C@H](Cc1ccccc1)C(=O)N[C@@H](Cc1c[nH]cn1)C(=O)N[C@@H](Cc1c[nH]c3ccccc13)C(=O)N2 [GoLP2] ([pGlu]CRRLCH[dF]HWCVTYCRGR-NH2; disulfide 2-15, 6-11)
EC50 [1]: 158 nM
Emax [1, 5]: 116 ± 11%
BRET efficacy of β-arrestin-2 recruitment relative to NDP-α-MSH (mouse MC4R-EGFP): less than 60%

α-MSH (peptide)
coupling of Gαs-SmBit to MC4R-LgBit (nanoluciferase complementation, live cells): EC50 [2]: 1 nM

GFCWYVCVYH[dF]HWRVCYRRCN-NH2 (disulfide 7-16, 3-20) [arenicin-3-like peptide 4]
cAMP accumulation (Cisbio HTRF) in HEK293 cells transiently expressing mouse MC4R-EGFP: EC50 [3]: 820 nM
cAMP accumulation (Cisbio HTRF) in HEK293 cells transiently expressing mouse MC4R-EGFP: Emax (normalised to NDP-α-MSH) [3]: 106%
recruitment of β-arrestin-2-nanoluciferase to MC4R-EGFP (kinetic BRET, HEK293 cells), 10 μM peptide: BRET efficacy relative to NDP-α-MSH (100) [4]: < 60%

B1: arenicin-3-like peptide 2 (peptide)
peptide: GFCWYVCVYPH[dF]HWVCYRRCN-NH2
modifications: disulfide 7-16, 3-20; N-terminus assumed
SMILES: CC(C)[C@@H]1NC(=O)[C@H](Cc2c[nH]c3ccccc23)NC(=O)[C@H](Cc2c[nH]cn2)NC(=O)[C@@H](Cc2ccccc2)NC(=O)[C@H](Cc2c[nH]cn2)NC(=O)[C@@H]2CCCN2C(=O)[C@H](Cc2ccc(O)cc2)NC(=O)[C@H](C(C)C)NC(=O)[C@@H]2CSSC[C@H](NC1=O)C(=O)N[C@@H](Cc1ccc(O)cc1)C(=O)N[C@@H](CCCNC(=N)N)C(=O)N[C@@H](CCCNC(=N)N)C(=O)N[C@H](C(=O)N[C@@H](CC(N)=O)C(N)=O)CSSC[C@H](NC(=O)[C@H](Cc1ccccc1)NC(=O)CN)C(=O)N[C@@H](Cc1c[nH]c3ccccc13)C(=O)N[C@@H](Cc1ccc(O)cc1)C(=O)N[C@@H](C(C)C)C(=O)N2
cAMP accumulation (Cisbio HTRF) in HEK293 cells transiently expressing mouse MC4R-EGFP: EC50 [3]: 18 nM
cAMP accumulation (Cisbio HTRF) in HEK293 cells transiently expressing mouse MC4R-EGFP: Emax (normalised to NDP-α-MSH) [3]: 95%
recruitment of β-arrestin-2-nanoluciferase to MC4R-EGFP (kinetic BRET, HEK293 cells), 10 μM peptide: BRET efficiency relative to NDP-α-MSH (100) [4]: > 130%

GFCWYVCVYH[dF]RWRVCYRRCN-NH2 (disulfide 7-16, 3-20) [arenicin-3-like peptide 5]
cAMP accumulation (Cisbio HTRF) in HEK293 cells transiently expressing mouse MC4R-EGFP: EC50 [3]: 260 nM
cAMP accumulation (Cisbio HTRF) in HEK293 cells transiently expressing mouse MC4R-EGFP: Emax (normalised to NDP-α-MSH) [3]: 99%
recruitment of β-arrestin-2-nanoluciferase to MC4R-EGFP (kinetic BRET, HEK293 cells), 10 μM peptide: BRET efficacy relative to NDP-α-MSH (100) [4]: < 60%
